Where two headings read alike, the source gives them in different places.
Columns and labels:
[1] = Scanning electron microscopy (SEM) of the filter membrane surface; type: physicochemical; details: T4 powder in water, comparative example
Experimental: These findings indicate that despite the 1:100 dilution process undergone by the original 150 μg/mL mixture, the formation of microaggregates remains stable, even after 8 h, and removes a considerable amount of the active ingredient from the pharmacological action.

[2] = cited from earlier work
[3] = Saturation of T4 solutions in PEG; type: physicochemical; details: T4 solvated in PEG
From the text: Due to their structure, said nanoaggregates are easily absorbed at gastrointestinal level, and are therefore completely and certainly bioavailable.

[4] = cited from earlier work; remark: listed apart in the source
[5] = Protective effect of PEG: residual T4 assay by HPLC after 10 h stirring under nitrogen or oxygen; type: physicochemical; details: 600 rpm, 35° C.
Experimental: 5 mL of each solution is left under stirring for 10 h at 600 rpm and 35° C. in a nitrogen atmosphere, and 5 mL is left under the same conditions but in an oxygen atmosphere.

[6] = Filtration through membranes with cut-off ≤100 KDa: T4 in the permeate; type: physicochemical
[7] = Quantity of T4 microaggregates formed in water: HPLC T4 concentration before and after 0.2 μm microfiltration; type: physicochemical
Experimental: […] 50 mL of each sample taken is microfiltered through a Millipore GSWP02500 membrane with a porosity of 0.2 μm.
(§1) 50 mL of each sample taken is microfiltered through a Millipore GSWP02500 membrane with a porosity of […].
as §1
50 mL of each sample taken is microfiltered through a Millipore GSWP02500 membrane with a porosity of 0.2 μm.

[8] = T4 150 μg/mL in 50% w/w aqueous PEG 400, 2000, 4000 or 8000 (all types), diluted 100 times in water pH 1.5, T0
[9] = T4 150 μg/mL in 50% w/w aqueous PEG 400, 2000, 4000 or 8000 (all types), diluted 100 times in water pH 6.5, T0
[10] = T4 150 μg/mL in PEG 200, 300, 400 or 600 (all types), diluted 100 times in water pH 6.5, T0

(2S)-2-amino-3-[4-(4-hydroxy-3,5-diiodo-oxyphenyloxy)-3,5-diiodophenyl]propanoic acid [T4]
average length on the longer axis of elongated crystalline structures on the filter [1]: exceeding 3.03±1.40 μm
intrinsic dissolution rate (IDR) ([2]; entire physiological pH range): about 0.0002 mg/min/cm^2
Biopharmaceutics Classification System class ([2]; high solubility and intestinal permeability): Class I
concentration of T4 solution in PEG usable without the system becoming saturated [3]: up to 0.1 g/mL
half-life of the medicament ([4]; euthyroidism): about 7 days
half-life of the medicament ([4]; hypothyroidism and pregnancy): 220 to 240 h
share absorbed in the duodenum ([4]; oral, small intestine): 21%
share absorbed in the ileum ([4]; oral, small intestine): 34%
share absorbed in the jejunum ([4]; oral, small intestine): 45%
time absorption takes ([4]; oral): about three
T4 assay value of the solutions ([5]; T4 150 μg/mL in ethanol, glycerol, PEG 200, 300, 400 or 600 (all cases), nitrogen atmosphere): remains the same as the theoretical value
residual T4 assay value ([5]; T4 150 μg/mL in glycerol or ethanol, oxygen atmosphere): 30 % of the original assay value
T4 in the permeate of ≤100 KDa membrane ([6]; T4 in 50% PEG in water, diluted 100 times in water pH 6.5): quantitative absence of T4 in the permeate
T4 in the permeate of ≤100 KDa membrane ([6]; T4 in 50% w/w aqueous PEG, diluted 100 times in water pH 1.5): quantitative absence of T4 in the permeate
T4 in the permeate of ≤100 KDa membrane ([6]; T4 in PEG 200, 300, 400 or 600, diluted 100 times in water pH 6.5): quantitative absence of T4 in the permeate
T4 in the permeate of ≤100 KDa membrane ([6]; T4 in PEG 8000/glycerol or PEG/ethanol 50/50 w/w, diluted 100 times in water pH 6.5): quantitative absence of T4 in the permeate
T4 in the permeate of ≤100 KDa membrane ([6]; T4 in glycerin, ethanol or glycerin/ethanol 80/20 w/w, diluted 100 times in water pH 6.5): quantitative absence of T4 in the permeate
T4 concentration after microfiltration ([7]; T4 150 μg/mL in 30% w/w aqueous PEG 400, 2000, 4000 or 8000 (all types), diluted 100 times in water pH 6.5, T0): 75 % of the value before microfiltration
T4 concentration after microfiltration [7, 8]: 100 % of the theoretical value
T4 concentration before microfiltration [7, 8]: 100 % of the theoretical value
T4 concentration after microfiltration [7, 9]: 100 % of the theoretical value
T4 concentration before microfiltration [7, 9]: 100 % of the theoretical value
T4 concentration after microfiltration [7, 10]: 100 % of the theoretical value
T4 concentration before microfiltration [7, 10]: 100 % of the theoretical value
T4 concentration after microfiltration compared with before ([7]; T4 150 μg/mL in PEG 8000/glycerol or PEG/ethanol 50/50 w/w (both systems), diluted 100 times in water pH 6.5, T0): identical to that before microfiltration
behaviour at later times (microfiltration) ([7]; T4 in 30% w/w aqueous PEG, diluted 100 times in water pH 6.5, T1h, T4h and T8h): behaviour similar to that at T0
T4 concentration in the solution before microfiltration ([7]; T4 powder 150 μg/mL in water pH 6.5, diluted 1:100 in water pH 6.5, T0 (30 sec)): 97.3 % of the theoretical value
T4 concentration after microfiltration ([7]; T4 powder 150 μg/mL in water pH 6.5, diluted 1:100 in water pH 6.5, T0 (30 sec), 0.2 μm filter): 18.5 % of the theoretical value
T4 concentration in the solution before microfiltration ([7]; T4 powder in water pH 6.5, diluted 1:100, T1h): 97.9%
T4 concentration after microfiltration ([7]; T4 powder in water pH 6.5, diluted 1:100, T1h, 0.2 μm filter): 27.1%
T4 concentration in the solution before microfiltration ([7]; T4 powder in water pH 6.5, diluted 1:100, T4h): 98.2%
T4 concentration after microfiltration ([7]; T4 powder in water pH 6.5, diluted 1:100, T4h, 0.2 μm filter): 27.5%
T4 concentration in the solution before microfiltration ([7]; T4 powder in water pH 6.5, diluted 1:100, T8h): 97.5%
T4 concentration after microfiltration ([7]; T4 powder in water pH 6.5, diluted 1:100, T8h, 0.2 μm filter): 23.7%
